Measured values reported in patent publication US20260198493A1, “HYDRAZIDE COMPOUND AND AGRICULTURAL/HORTICULTURAL FUNGICIDE” (Nippon Soda Co., Ltd., priority 2022, published 2026).

Assays:
Botrytis cinerea [1] = test: Control test of cucumber gray mold (sprayed young cucumber seedlings); type: in vivo; conditions: 96 h, four days after inoculation; for pest or weed control at 25 ppm: 25 ppm by mass spray; for pest or weed control at 125 ppm: 125 ppm by mass spray
Procedure: Then, the drug liquid was sprayed onto young cucumber seedlings cultivated in a nursery pot (variety “Jihai”-based, cotyledon stage), and then air-dried. […] They were left still in a moist room at 20° C. Four days after inoculation, leaves of the young cucumber seedlings were visually observed, and the control value was calculated from the lesion area ratio in accordance with the following equation. [formula]

Fusarium graminearum = test: microbe, parasite or virus in culture; type: cell-based; conditions: 96 h, read-out: growth inhibition ratio
[2] = test system: Erysiphe graminis f.sp.tritici; test: Control test of wheat powdery mildew disease (sprayed young wheat seedlings); type: in vivo; conditions: Blumeria graminis, 144 h, 125 ppm by mass spray, six days after inoculation
Botrytis cinerea [3] = type: cell-based; conditions: 120 h, 25 ppm by volume, Vogel medium, 20° C., five days, dark, read-out: growth inhibition ratio
Colletotrichum acutatum = test: Fungicidal effect test against fungi causing apple anthracnose; conditions: 96 h, read-out: growth inhibition ratio
Glomerella cingulata = test: Fungicidal effect test against fungi causing grape ripe rot disease; conditions: Colletotrichum gloeosporioides, 72 h, read-out: growth inhibition ratio
Venturia inaequalis = test: Control test of apple scab disease (sprayed young apple seedlings); type: in vivo; conditions: 125 ppm by mass spray, 12 to 14 days after inoculation

Cc1ccc(CN(C=O)NC(=O)c2cc(C)nnc2Oc2cccc(C3CC3)c2F)c(C)c1 [b-3, 3-(3-cyclopropyl-2-fluorophenoxy)-N′-(2,4-dimethylbenzyl)-N′-formyl-6-methylpyridazine-4-carbohydrazide]
≥ 75%: pest or weed control at 25 ppm (Botrytis cinerea [1]) | pest or weed control at 125 ppm (Botrytis cinerea [1]) | inhibition of growth at 25 ppm (Fusarium graminearum) | pest or weed control at 125 ppm [2] | inhibition of growth at 25 ppm (Botrytis cinerea [3]) | inhibition of growth at 25 ppm (Colletotrichum acutatum) | inhibition of growth at 25 ppm (Glomerella cingulata)

COC(=O)N(Cc1ccc(C)cc1C)NC(=O)c1cc(C)nnc1Oc1cccc(C2CC2)c1F [b-6, Methyl 2-(3-(3-cyclopropyl-2-fluorophenoxy)-6-methylpyridazine-4-carbonyl)-1-(2,4-dimethylbenzyl)hydrazine-1-carboxylate]
≥ 75%: pest or weed control at 25 ppm (Botrytis cinerea [1]) | pest or weed control at 125 ppm (Botrytis cinerea [1]) | inhibition of growth at 25 ppm (Fusarium graminearum) | pest or weed control at 125 ppm [2] | pest or weed control at 125 ppm (Venturia inaequalis)

Cc1ccc(CN(C=O)NC(=O)c2cc(C)ncc2Oc2cccc(C3CC3)c2F)c(C)c1 [b-14]
≥ 75%: pest or weed control at 25 ppm (Botrytis cinerea [1]) | pest or weed control at 125 ppm (Botrytis cinerea [1]) | inhibition of growth at 25 ppm (Fusarium graminearum) | pest or weed control at 125 ppm [2] | inhibition of growth at 25 ppm (Botrytis cinerea [3]) | inhibition of growth at 25 ppm (Colletotrichum acutatum) | inhibition of growth at 25 ppm (Glomerella cingulata)

COC(=O)N(Cc1ccc(C)cc1C)NC(=O)c1c(Oc2cccc(C3CC3)c2F)nnc(Cl)c1C [b-15]
≥ 75%: pest or weed control at 25 ppm (Botrytis cinerea [1]) | pest or weed control at 125 ppm (Botrytis cinerea [1]) | inhibition of growth at 25 ppm (Fusarium graminearum) | pest or weed control at 125 ppm [2] | inhibition of growth at 25 ppm (Botrytis cinerea [3]) | pest or weed control at 125 ppm (Venturia inaequalis) | inhibition of growth at 25 ppm (Colletotrichum acutatum) | inhibition of growth at 25 ppm (Glomerella cingulata)

COC(=O)N(Cc1ccc(C)cc1C)NC(=O)c1cc(C)ncc1Oc1cccc(C2CC2)c1F [b-16]
≥ 75%: pest or weed control at 25 ppm (Botrytis cinerea [1]) | pest or weed control at 125 ppm (Botrytis cinerea [1]) | inhibition of growth at 25 ppm (Fusarium graminearum) | pest or weed control at 125 ppm [2] | inhibition of growth at 25 ppm (Botrytis cinerea [3]) | pest or weed control at 125 ppm (Venturia inaequalis) | inhibition of growth at 25 ppm (Colletotrichum acutatum) | inhibition of growth at 25 ppm (Glomerella cingulata)

Cc1ccc(CN(NC(=O)c2cc(C)nnc2Oc2cccc(C3CC3)c2F)C(=O)OC(C)(C)C)c(C)c1 [b-22]
≥ 75%: pest or weed control at 25 ppm (Botrytis cinerea [1]) | pest or weed control at 125 ppm (Botrytis cinerea [1]) | inhibition of growth at 25 ppm (Fusarium graminearum) | pest or weed control at 125 ppm [2] | inhibition of growth at 25 ppm (Botrytis cinerea [3]) | pest or weed control at 125 ppm (Venturia inaequalis) | inhibition of growth at 25 ppm (Colletotrichum acutatum) | inhibition of growth at 25 ppm (Glomerella cingulata)

COC(=O)N(Cc1ccc(C)cc1C)NC(=O)c1cc(C)nnc1Oc1cccc(Cl)c1F [b-23, Methyl 2-(3-(3-chloro-2-fluorophenoxy)-6-methylpyridazine-4-carbonyl)-1-(2,4-dimethylbenzyl)hydrazine-1-carboxylate]
≥ 75%: pest or weed control at 25 ppm (Botrytis cinerea [1]) | pest or weed control at 125 ppm (Botrytis cinerea [1]) | inhibition of growth at 25 ppm (Fusarium graminearum) | pest or weed control at 125 ppm [2] | inhibition of growth at 25 ppm (Botrytis cinerea [3]) | pest or weed control at 125 ppm (Venturia inaequalis) | inhibition of growth at 25 ppm (Colletotrichum acutatum) | inhibition of growth at 25 ppm (Glomerella cingulata)

COC(=O)N(Cc1ccc(C)cc1C)NC(=O)c1cc(C)nnc1Oc1cccc(C#N)c1 [b-37]
≥ 75%: pest or weed control at 125 ppm (Botrytis cinerea [1]) | inhibition of growth at 25 ppm (Fusarium graminearum) | pest or weed control at 125 ppm [2] | inhibition of growth at 25 ppm (Botrytis cinerea [3]) | inhibition of growth at 25 ppm (Colletotrichum acutatum) | inhibition of growth at 25 ppm (Glomerella cingulata)

C#Cc1cccc(Oc2nnc(C)cc2C(=O)NN(Cc2ccc(C)cc2C)C(=O)OC)c1 [b-138]
≥ 75%: pest or weed control at 25 ppm (Botrytis cinerea [1]) | pest or weed control at 125 ppm (Botrytis cinerea [1]) | inhibition of growth at 25 ppm (Fusarium graminearum) | inhibition of growth at 25 ppm (Botrytis cinerea [3]) | pest or weed control at 125 ppm (Venturia inaequalis) | inhibition of growth at 25 ppm (Colletotrichum acutatum) | inhibition of growth at 25 ppm (Glomerella cingulata)

COC(=O)N(Cc1ccc(C)cc1C)NC(=O)c1ccncc1Oc1ccccc1 [b-188]
≥ 75%: pest or weed control at 25 ppm (Botrytis cinerea [1]) | pest or weed control at 125 ppm (Botrytis cinerea [1]) | inhibition of growth at 25 ppm (Fusarium graminearum) | pest or weed control at 125 ppm [2] | inhibition of growth at 25 ppm (Botrytis cinerea [3]) | inhibition of growth at 25 ppm (Colletotrichum acutatum) | inhibition of growth at 25 ppm (Glomerella cingulata)

COC(=O)N(Cc1ccc(C)cc1C)NC(=O)c1c(F)cncc1Oc1cccc(Cl)c1F [b-200]
≥ 75%: pest or weed control at 25 ppm (Botrytis cinerea [1]) | pest or weed control at 125 ppm (Botrytis cinerea [1]) | inhibition of growth at 25 ppm (Fusarium graminearum) | pest or weed control at 125 ppm [2] | inhibition of growth at 25 ppm (Botrytis cinerea [3]) | inhibition of growth at 25 ppm (Colletotrichum acutatum) | inhibition of growth at 25 ppm (Glomerella cingulata)

COC(=O)N(Cc1ccc(OC)cc1C)NC(=O)c1c(Cl)cncc1Oc1cccc(Cl)c1F [b-207]
≥ 75%: pest or weed control at 25 ppm (Botrytis cinerea [1]) | pest or weed control at 125 ppm (Botrytis cinerea [1]) | inhibition of growth at 25 ppm (Fusarium graminearum) | pest or weed control at 125 ppm [2] | inhibition of growth at 25 ppm (Botrytis cinerea [3]) | inhibition of growth at 25 ppm (Colletotrichum acutatum) | inhibition of growth at 25 ppm (Glomerella cingulata)

C=Cc1cncc(Oc2cccc(C3CC3)c2F)c1C(=O)NN(Cc1ccc(C)cc1C)C(=O)OC [b-211]
≥ 75%: pest or weed control at 25 ppm (Botrytis cinerea [1]) | pest or weed control at 125 ppm (Botrytis cinerea [1]) | inhibition of growth at 25 ppm (Fusarium graminearum) | pest or weed control at 125 ppm [2] | inhibition of growth at 25 ppm (Botrytis cinerea [3]) | inhibition of growth at 25 ppm (Colletotrichum acutatum) | inhibition of growth at 25 ppm (Glomerella cingulata)

COC(=O)N(Cc1ccc(C)cc1C)NC(=O)c1c(Oc2cccc(C3CC3)c2F)cnc2c1OC(C)(C)C=C2 [b-213, Methyl 2-(7-(3-cyclopropyl-2-fluorophenoxy)-2,2-dimethyl-2H-pyrano[3,2-b]pyridine-8-carbonyl)-1-(2,4-dimethylbenzyl)hydrazine-1-carboxylate]
≥ 75%: pest or weed control at 25 ppm (Botrytis cinerea [1]) | pest or weed control at 125 ppm (Botrytis cinerea [1]) | inhibition of growth at 25 ppm (Fusarium graminearum) | pest or weed control at 125 ppm [2] | inhibition of growth at 25 ppm (Botrytis cinerea [3]) | inhibition of growth at 25 ppm (Colletotrichum acutatum) | inhibition of growth at 25 ppm (Glomerella cingulata)

CO/N=C/c1cncc(Oc2cccc(C3CC3)c2F)c1C(=O)NN(Cc1ccc(C)cc1C)C(=O)OC [b-214]
≥ 75%: pest or weed control at 125 ppm (Botrytis cinerea [1]) | inhibition of growth at 25 ppm (Fusarium graminearum) | inhibition of growth at 25 ppm (Botrytis cinerea [3]) | inhibition of growth at 25 ppm (Colletotrichum acutatum) | inhibition of growth at 25 ppm (Glomerella cingulata)
